Experimental data published in ChEMBL document CHEMBL3045857, “Monitoring of spirodiclofen susceptibility in field populations of European red mites, Panonychus ulmi (Koch) (Acari: Tetranychidae), and the cross-resistance pattern of a laboratory-selected strain” (2011).
≈ marks a conversion by molar mass, not a printed value.

Experiments:
Assay type in all cases: functional
Panonychus ulmi [1] = test: Insecticidal activity against Panonychus ulmi PSR-TK in plum tree leaf assessed as mortality at adult stage compound treated by spray application measured after 7 to 8 days treatment
Panonychus ulmi [2] = test: Insecticidal activity against Panonychus ulmi HS in plum tree leaf assessed as mortality at adult stage compound treated by spray application measured after 7 to 8 days treatment
Panonychus ulmi [3] = test: Resistance ratio, LC50 for adult Panonychus ulmi HS to LC50 for adult Panonychus ulmi PSR TK
Panonychus ulmi [4] = test: Insecticidal activity against Panonychus ulmi PSR-TK in plum tree leaf assessed as mortality at egg stage compound treated by spray application measured after 7 to 8 days treatment
Panonychus ulmi [5] = test: Insecticidal activity against Panonychus ulmi HS in plum tree leaf assessed as larvae mortality compound treated by spray application measured after 7 to 8 days treatment
Panonychus ulmi [6] = test: Resistance ratio, LC50 for larvae Panonychus ulmi HS to LC50 for larvae Panonychus ulmi PSR TK
Panonychus ulmi [7] = test: Insecticidal activity against Panonychus ulmi PSR-TK in plum tree leaf assessed as mortality at larvae stage compound treated by spray application measured after 7 to 8 days treatment
Panonychus ulmi [8] = test: Resistance ratio, LC50 for egg Panonychus ulmi HS to LC50 for egg Panonychus ulmi PSR TK
Panonychus ulmi [9] = test: Insecticidal activity against Panonychus ulmi HS in plum tree leaf assessed as egg mortality compound treated by spray application measured after 7 to 8 days treatment
Panonychus ulmi [10] = test: Resistance ratio, LC50 for adult Panonychus ulmi HS to LC50 for adult Panonychus ulmi GE 16/09
Panonychus ulmi [11] = test: Resistance ratio, LC50 for larvae Panonychus ulmi Ge14/09 to LC50 for larvae Panonychus ulmi HS
Panonychus ulmi [12] = test: Insecticidal activity against Panonychus ulmi Ge15/09 in plum tree leaf assessed as egg mortality compound treated by spray application measured after 7 to 8 days treatment
Panonychus ulmi [13] = test: Resistance ratio, LC50 for egg Panonychus ulmi Ge13/09 to LC50 for egg Panonychus ulmi HS
Panonychus ulmi [14] = test: Resistance ratio, LC50 for egg Panonychus ulmi Ge14/09 to LC50 for egg Panonychus ulmi HS
Panonychus ulmi [15] = test: Insecticidal activity against Panonychus ulmi Ge14/09 in plum tree leaf assessed as egg mortality compound treated by spray application measured after 7 to 8 days treatment
Panonychus ulmi [16] = test: Insecticidal activity against Panonychus ulmi Ge16/09 in plum tree leaf assessed as larvae mortality compound treated by spray application measured after 7 to 8 days treatment
Panonychus ulmi [17] = test: Resistance ratio, LC50 for egg Panonychus ulmi Ge15/09 to LC50 for egg Panonychus ulmi HS
Panonychus ulmi [18] = test: Resistance ratio, LC50 for larvae Panonychus ulmi Ge16/09 to LC50 for larvae Panonychus ulmi HS
Panonychus ulmi [19] = test: Resistance ratio, LC50 for larvae Panonychus ulmi Ge15/09 to LC50 for larvae Panonychus ulmi HS
Panonychus ulmi [20] = test: Insecticidal activity against Panonychus ulmi Ge14/09 in plum tree leaf assessed as larvae mortality compound treated by spray application measured after 7 to 8 days treatment
Panonychus ulmi [21] = test: Resistance ratio, LC50 for larvae Panonychus ulmi Ge13/09 to LC50 for larvae Panonychus ulmi HS
Panonychus ulmi [22] = test: Resistance ratio, LC50 for egg Panonychus ulmi Ge16/09 to LC50 for egg Panonychus ulmi HS
Panonychus ulmi [23] = test: Insecticidal activity against Panonychus ulmi Ge13/09 in plum tree leaf assessed as egg mortality compound treated by spray application measured after 7 to 8 days treatment
Panonychus ulmi [24] = test: Insecticidal activity against Panonychus ulmi Ge16/09 in plum tree leaf assessed as egg mortality compound treated by spray application measured after 7 to 8 days treatment
Panonychus ulmi [25] = test: Insecticidal activity against Panonychus ulmi Ge13/09 in plum tree leaf assessed as larvae mortality compound treated by spray application measured after 7 to 8 days treatment
Panonychus ulmi [26] = test: Insecticidal activity against Panonychus ulmi Ge15/09 in plum tree leaf assessed as larvae mortality compound treated by spray application measured after 7 to 8 days treatment

CCCCCCCCCCCCC1=C(OC(C)=O)C(=O)c2ccccc2C1=O [ACEQUINOCYL]
LC50 (Panonychus ulmi [1]): 1.3 µg/mL (≈ 3.38 µM) | LC50 (Panonychus ulmi [2]): 2.75 µg/mL (≈ 7.15 µM) | RatioLC50 (Panonychus ulmi [3]): 3

COc1ccc(-c2ccccc2)cc1NNC(=O)OC(C)C [BIFENAZATE]
LC50 (Panonychus ulmi [1]): 1.3 µg/mL (≈ 4.33 µM) | LC50 (Panonychus ulmi [2]): 1.42 µg/mL (≈ 4.73 µM) | RatioLC50 (Panonychus ulmi [3]): 1

Clc1ccccc1-c1nnc(-c2ccccc2Cl)nn1 [CLOFENTEZINE]
LC50 (Panonychus ulmi [4]): > 10000 µg/mL | LC50 (Panonychus ulmi [5]): 5.53 µg/mL (≈ 18.2 µM) | RatioLC50 (Panonychus ulmi [6]): >1800 | LC50 (Panonychus ulmi [7]): > 10000 µg/mL | RatioLC50 (Panonychus ulmi [8]): >160 | LC50 (Panonychus ulmi [9]): 61.3 µg/mL (≈ 202 µM) | RatioLC50 (Panonychus ulmi [10]): >3900

Cc1nn(C)c(/C(OC(=O)C(C)(C)C)=C(\C#N)c2ccc(C(C)(C)C)cc2)c1C [CYENOPYRAFEN]
LC50 (Panonychus ulmi [1]): 7.13 µg/mL (≈ 18.1 µM) | LC50 (Panonychus ulmi [2]): 0.3 µg/mL (≈ 0.762 µM) | RatioLC50 (Panonychus ulmi [3]): 23.5

CCOc1cc(C(C)(C)C)ccc1C1COC(c2c(F)cccc2F)=N1 (stereo not given) [ETOXAZOLE]
LC50 (Panonychus ulmi [5]): 0.15 µg/mL (≈ 0.417 µM) | RatioLC50 (Panonychus ulmi [6]): 10 | LC50 (Panonychus ulmi [7]): > 10000 µg/mL

C[C@@H]1[C@@H](c2ccc(Cl)cc2)SC(=O)N1C(=O)NC1CCCCC1 [HEXYTHIAZOX]
LC50 (Panonychus ulmi [4]): 4.32 µg/mL (≈ 12.2 µM) | LC50 (Panonychus ulmi [5]): 0.43 µg/mL (≈ 1.22 µM) | RatioLC50 (Panonychus ulmi [6]): >20000 | LC50 (Panonychus ulmi [7]): 4.05 µg/mL (≈ 11.5 µM) | RatioLC50 (Panonychus ulmi [8]): >1600 | LC50 (Panonychus ulmi [9]): 5.99 µg/mL (≈ 17 µM) | RatioLC50 (Panonychus ulmi [10]): >20000

CCC(C)(C)C(=O)OC1=C(c2ccc(Cl)cc2Cl)C(=O)OC12CCCCC2 [SPIRODICLOFEN]
RatioLC50 (Panonychus ulmi [11]): 33 | LC50 (Panonychus ulmi [12]): 0.96 µg/mL (≈ 2.33 µM) | LC50 (Panonychus ulmi [4]): > 10000 µg/mL | LC50 (Panonychus ulmi [5]): 1.39 µg/mL (≈ 3.38 µM) | RatioLC50 (Panonychus ulmi [13]): 1.1 | RatioLC50 (Panonychus ulmi [14]): 2.9 | LC50 (Panonychus ulmi [15]): 1.53 µg/mL (≈ 3.72 µM) | LC50 (Panonychus ulmi [16]): 59.6 µg/mL (≈ 145 µM) | RatioLC50 (Panonychus ulmi [6]): >7000 | RatioLC50 (Panonychus ulmi [17]): 1.8 | RatioLC50 (Panonychus ulmi [18]): 59 | RatioLC50 (Panonychus ulmi [19]): 27 | LC50 (Panonychus ulmi [7]): > 10000 µg/mL | RatioLC50 (Panonychus ulmi [8]): 56 | LC50 (Panonychus ulmi [20]): 33 µg/mL (≈ 80.2 µM) | RatioLC50 (Panonychus ulmi [21]): 12 | RatioLC50 (Panonychus ulmi [22]): 1.2 | LC50 (Panonychus ulmi [9]): 0.52 µg/mL (≈ 1.26 µM) | LC50 (Panonychus ulmi [23]): 0.59 µg/mL (≈ 1.43 µM) | LC50 (Panonychus ulmi [24]): 0.66 µg/mL (≈ 1.6 µM) | LC50 (Panonychus ulmi [25]): 12.1 µg/mL (≈ 29.4 µM) | LC50 (Panonychus ulmi [26]): 27.6 µg/mL (≈ 67.1 µM)

Cc1cc(C)c(C2=C(OC(=O)CC(C)(C)C)C3(CCCC3)OC2=O)c(C)c1 [SPIROMESIFEN]
LC50 (Panonychus ulmi [4]): 0.36 µg/mL (≈ 0.972 µM) | LC50 (Panonychus ulmi [5]): 0.13 µg/mL (≈ 0.351 µM) | RatioLC50 (Panonychus ulmi [6]): 30.4 | LC50 (Panonychus ulmi [7]): 3.73 µg/mL (≈ 10.1 µM) | RatioLC50 (Panonychus ulmi [8]): 4 | LC50 (Panonychus ulmi [9]): 1.07 µg/mL (≈ 2.89 µM)

CCOC(=O)OC1=C(c2cc(C)ccc2C)C(=O)N[C@]12CC[C@@H](OC)CC2 [SPIROTETRAMAT]
LC50 (Panonychus ulmi [5]): 1.09 µg/mL (≈ 2.92 µM) | RatioLC50 (Panonychus ulmi [6]): 3 | LC50 (Panonychus ulmi [7]): 538 µg/mL (≈ 1440 µM)

CCc1nn(C)c(C(=O)NCc2ccc(C(C)(C)C)cc2)c1Cl [TEBUFENPYRAD]
LC50 (Panonychus ulmi [1]): 11.2 µg/mL (≈ 33.5 µM) | LC50 (Panonychus ulmi [2]): 0.37 µg/mL (≈ 1.11 µM) | RatioLC50 (Panonychus ulmi [3]): 30.3
